Where two headings read alike, the source gives them in different places. Each block holds one compound with its values, some of them ahead of it.
Experiments:
Format in all cases: physicochemical
[1] = Slurry study evaluated by XRPD
Experimental: About 20 mg of Compound 3, Form B was weighed into a sample vial and then 1 mL of solvent was added to make a suspension. The suspension was stirred at room temperature or 50° C. for 3 days and 11 days. Then, the wet solid was collected by filtration and analyzed by XRPD.
20-30 mg of Compound 4 Form B was added in 1 mL of selected solvents at room temperature or 50° C. The suspension was slurried at room temperature or 50° C. for 3 days and 11 days. The wet solids collected from filtration were examined by XRPD. There were four crystal forms obtained by slurrying, including di-mesylate Forms B, C and D as well as mono-mesylate Form G.

[2] = Estimated solubility by solvent addition method via visual assessment; details: thermodynamic from solid, read-out: Solubility, Concentration
Experimental: Solubility of Compound 3 Form B was estimated in 30 solvents at room temperature and in 9 organic solvents at 70° C. using solvent addition method via visual assessment.
Protocol: about 3 mg of Compound 3 Form B was weighed into a sample vial and the solvent was added gradually with vortex until the drug solution was clear by observation or a total of 2 mL solvent was added. Then, the estimated solubility (mg/mL) was calculated.
Solubility of Compound 4, Form B was estimated in 18 solvents at room temperature using solvent addition method via visual assessment. About 3 mg of Compound 4, Form B was weighed into a sample vial and the solvent was added gradually with vortex until the solution was clear by observation or a total of 2 mL solvent was added. Then, the estimated solubility (mg/mL) was calculated.

[3] = Water activity study (competition of forms, XRPD); details: for XPRD results, Form: room temperature
Experimental: Water activity study was performed using Compound 3 Form B (anhydrate) as the input material in EtOH/Water with different water content at RT. About 5 mg of Compound 3, Form B was used to prepare saturated solutions and the solutions were filtered by syringe at RT. 5 mg of Compound 3, Form D were added in the 1 mL of filtrate, and the suspension was slurried at RT for 3 and 7 days. The solids collected after filtration were analyzed by XRPD.
Protocol: excess amount of Compound 4 Form B was used to prepare saturated solutions. 6-8 mg each of Compound 4 Form B and Form D were added in the solutions. The suspension was slurried at room temperature for the corresponding times. Residual solids were collected by filtration with syringe filter, and characterized by XRPD.

[4] = Competitive slurry experiment evaluated by XRPD
Text: Competitive slurry experiment for Compound 4 Form B and Form D Competitive slurry experiments of Compound 4 Form B and Form D were set up to verify the relative stability relationship. It was supposed that Form D was the stable form at high water activity, while Form B was stable at low water activity. All the solvents used was analytical grade and should contained trace amounts of water. […] The water activity at elevated temperature is lower than at low temperature. Therefore, Form B was obtained in ACN at 50° C., while Form D was the stable form at room temperature.

[5] = Thermal treatment (heat-cool cycle by DSC, XRPD of resulting solids)
Experimental: Compound 3, Form E was treated with heat-cool cycle by DSC. The resulted solids were characterized by XRPD. Compound 3, Form E, was converted to Compound 3, Form D after desolvation.
Compound 4 Form B was treated with heat-cool cycle by DSC. The resulted solids were checked by XRPD. […] The water was excluded at elevated temperature, then entered in the crystal lattice again at room temperature.
Compound 4 Form C and trace Form B was treated with heat-cool cycle by DSC. The resulted solids were checked by XRPD. The sample was converted to low crystalline (LC) Form B after heating to 175° C.
Compound 4 Form D was treated with heat-cool cycle by DSC. The resulted solids were checked by XRPD. The sample kept unchanged after heating to 140° C., but was converted to a new low crystalline form after heating to 210° C. which was assigned to Form F.

[6] = slurry at 50° C., printed at MeOH

SMILES: Cc1n[nH]c2nc(-c3ccc(NS(=O)(=O)c4cc(F)ccc4F)c(F)c3)nc(NCCN(C)C)c12 [Compound 4 Forms B + D]
XPRD results, Form ([3]; ACN/water, aW 0.37, 8 d): Form D | XPRD results, Form ([3]; ACN/water, aW 0.37, 14 d): Form D | XPRD results, Form ([3]; ACN/water, aW 0.58, 8 d): Form D | XPRD results, Form ([3]; ACN/water, aW 0.58, 14 d): Form D | XPRD results, Form ([3]; ACN/water, aW 0.78, 8 d): Form D | XPRD results, Form ([3]; ACN/water, aW 0.78, 14 d): Form D | XPRD results, Form ([3]; ACN/water, aW 0.90, 8 d): Form D | XPRD results, Form ([3]; ACN/water, aW 0.90, 14 d): Form D | XPRD results, Form ([3]; MeOH/water, aW 0.08, 3 d): Forms B + D | XPRD results, Form ([3]; MeOH/water, aW 0.08, 7 d): Form B | XPRD results, Form ([3]; MeOH/water, aW 0.16, 3 d): Form D | XPRD results, Form ([3]; MeOH/water, aW 0.16, 7 d): Form D | Results 8 d (XRPD) ([4]; ACN, 50° C.): Form B | Results 14 d (XRPD) ([4]; ACN, 50° C.): Form B | Results 8 d (XRPD) ([4]; ACN, RT): Form B + Form D | Results 14 d (XRPD) ([4]; ACN, RT): Form D | Results 8 d (XRPD) ([4]; IPAC, 50° C.): Form D | Results 14 d (XRPD) ([4]; IPAC, 50° C.): Form D | Results 8 d (XRPD) ([4]; IPAC, RT): Form D | Results 14 d (XRPD) ([4]; IPAC, RT): Form D | Results 8 d (XRPD) ([4]; MeOH, 50° C.): Form B | Results 14 d (XRPD) ([4]; MeOH, 50° C.): Form B | Results 8 d (XRPD) ([4]; MeOH, RT): Form B | Results 14 d (XRPD) ([4]; MeOH, RT): Form B

SMILES: Cc1n[nH]c2nc(-c3ccc(NS(=O)(=O)c4cc(F)ccc4F)c(F)c3)nc(NCCN(C)C)c12 [Compound 4 Form C + trace Form B]
XRPD Resulting Form ([5]; Heated to 175° C. at 10° C./min, and cooled to 25° C. at 5° C./min): Form B (LC)

SMILES: Cc1n[nH]c2nc(-c3ccc(NS(=O)(=O)c4cc(F)ccc4F)c(F)c3)nc(NCCN(C)C)c12.Cl [Compound 3 Form E]
XRPD Resulting Form ([5]; Heated to 114° C. at 10° C./min, and cooled to 25° C. at 5° C./min): Form E | XRPD Resulting Form ([5]; Heated to 160° C. at 10° C./min, and cooled to 25° C. at 5° C./min): Form D

Other lines, results leading:

XRPD Day 3/Wet [1, 6]: Form D | XRPD Day 11/Wet [1, 6]: Form D | XRPD Day 3/Wet ([1]; slurry at RT, 1,4-Dioxane 1 mL, cell apparently merged down for IPA, IPAC, MTBE, Water, n-Heptane, Acetone, EA, ACN, DCM, MIBK, MEK): Form D | XRPD Day 3/Wet ([1]; slurry at RT, EtOH 1 mL): Form D | XRPD Day 3/Wet ([1]; slurry at RT, MeOH 1 mL): Amorphous | XRPD Day 3/Wet ([1]; slurry at RT, THF 1 mL): Amorphous | XRPD Day 11/Wet ([1]; slurry at RT, printed at MeOH): Form D | solubility ([2]; aqueous with cosolvent or surfactant or cyclodextrin, Acetone/Water (1/1), RT): < 1.5 mg/mL | solubility ([2]; organic solvent or mixture, 1,4-Dioxane, RT): < 1.5 mg/mL | solubility ([2]; organic solvent or mixture, 2-Me-THF, RT): < 1.5 mg/mL | solubility ([2]; organic solvent or mixture, ACN, RT): < 1.5 mg/mL | solubility ([2]; organic solvent or mixture, ACN/Water (9/1), RT): 1.5 to 1.7 mg/mL | solubility ([2]; organic solvent or mixture, Acetic acid, 70° C.): < 1.5 mg/mL | solubility ([2]; organic solvent or mixture, Acetic acid, RT): < 1.5 mg/mL | solubility ([2]; organic solvent or mixture, Acetone, 70° C.): < 1.5 mg/mL | solubility ([2]; organic solvent or mixture, Acetone, RT): < 1.5 mg/mL | solubility ([2]; organic solvent or mixture, Acetone/MeOH (1/1), RT): 1.5 to 1.6 mg/mL | solubility ([2]; organic solvent or mixture, Benzyl alcohol, 70° C.): < 1.5 mg/mL | solubility ([2]; organic solvent or mixture, Benzyl alcohol, RT): < 1.5 mg/mL | solubility ([2]; organic solvent or mixture, DCM, RT): < 1.5 mg/mL | solubility ([2]; organic solvent or mixture, DCM/MeOH (3/1), RT): < 1.5 mg/mL | solubility ([2]; organic solvent or mixture, DMA, 70° C.): 20 to 40 mg/mL | solubility ([2]; organic solvent or mixture, DMA, RT): 3 to 3.3 mg/mL | solubility ([2]; organic solvent or mixture, DMF, 70° C.): 16.7 to 20 mg/mL | solubility ([2]; organic solvent or mixture, DMF, RT): 2 to 3 mg/mL | solubility ([2]; organic solvent or mixture, DMSO, 70° C.): > 40 mg/mL | solubility ([2]; organic solvent or mixture, DMSO, RT): 5.4 to 5.5 mg/mL | solubility ([2]; organic solvent or mixture, EA, RT): < 1.5 mg/mL | solubility ([2]; organic solvent or mixture, EtOH, 70° C.): < 1.5 mg/mL | solubility ([2]; organic solvent or mixture, EtOH, RT): < 1.5 mg/mL | solubility ([2]; organic solvent or mixture, IPA, RT): < 1.5 mg/mL | solubility ([2]; organic solvent or mixture, IPAC, RT): < 1.5 mg/mL | solubility ([2]; organic solvent or mixture, IPE, RT): < 1.5 mg/mL | solubility ([2]; organic solvent or mixture, MEK, RT): < 1.5 mg/mL | solubility ([2]; organic solvent or mixture, MIBK, RT): < 1.5 mg/mL | solubility ([2]; organic solvent or mixture, MTBE, RT): < 1.5 mg/mL | solubility ([2]; organic solvent or mixture, Me-cyclohexane, RT): < 1.5 mg/mL | solubility ([2]; organic solvent or mixture, MeOH, RT): < 1.5 mg/mL | solubility ([2]; organic solvent or mixture, MeOH/Water (9/1), RT): 2.5 to 3 mg/mL | solubility ([2]; organic solvent or mixture, NMP, 70° C.): > 40 mg/mL | solubility ([2]; organic solvent or mixture, NMP, RT): 3 to 3.8 mg/mL | solubility ([2]; organic solvent or mixture, THF, 70° C.): < 1.5 mg/mL | solubility ([2]; organic solvent or mixture, THF, RT): < 1.5 mg/mL | solubility ([2]; organic solvent or mixture, THF/Water (9/1), RT): 1.6 to 1.9 mg/mL | solubility ([2]; organic solvent or mixture, n-Heptane, RT): < 1.5 mg/mL | solubility ([2]; Water, RT): < 1.5 mg/mL
SMILES: Cc1n[nH]c2nc(-c3ccc(NS(=O)(=O)c4cc(F)ccc4F)c(F)c3)nc(NCCN(C)C)c12.Cl [Compound 3 Form B]

XPRD results 3 D/Wet, 7 D/Wet, 7 D/Dried ([3]; EtOH/Water 24.7/75.3 (V/%), aW 0.92, RT): Form D + extra peak | XPRD results 3 D/Wet, 7 D/Wet, 7 D/Dried ([3]; EtOH/Water 58.1/41.9 (V/%), aW 0.82, RT): Form D + extra peak | XPRD results 3 D/Wet, 7 D/Wet, 7 D/Dried ([3]; EtOH/Water 82.9/17.1 (V/%), aW 0.64, RT): Form D | XPRD results 3 D/Wet, 7 D/Wet, 7 D/Dried ([3]; EtOH/Water 92.8/7.2 (V/%), aW 0.41, RT): Form D | XPRD results 3 D/Wet, 7 D/Wet, 7 D/Dried ([3]; EtOH/Water 97/3 (V/%), aW 0.21, RT): Form D | XPRD results 3 D/Wet, 7 D/Wet, 7 D/Dried ([3]; EtOH/Water 98.4/1.6 (V/%), aW 0.12, RT): Form D
SMILES: Cc1n[nH]c2nc(-c3ccc(NS(=O)(=O)c4cc(F)ccc4F)c(F)c3)nc(NCCN(C)C)c12.Cl [Compound 3 Form B + D]
